Legend:
Assay in all cases: relative viability (nuclei count vs DMSO), 5 days (fraction); higher = more cells survive
AZD5582 + Bortezomib = compound: C[C@@H](C(=O)N[C@@H](C1CCCCC1)C(=O)N2CCC[C@H]2C(=O)N[C@@H]3[C@@H](CC4=CC=CC=C34)OCC#CC#CCO[C@@H]5CC6=CC=CC=C6[C@@H]5NC(=O)[C@@H]7CCCN7C(=O)[C@H](C8CCCCC8)NC(=O)[C@H](C)NC)NC [AZD5582] + CC(C)C[C@H](NC(=O)[C@H](Cc1ccccc1)NC(=O)c1cnccn1)B(O)O [Bortezomib] (partner 0.002 µM)
In short: (§1)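 Lung cancer cell lines were seeded in 1536-well plates and dosed by pin tool the next day, with either a single drug or a fixed anchor-drug dose combined with five library-drug doses (not always all listed) spaced in √10 steps. Five days later, one step fixed the cells and stained their nuclei (final 0.05% Triton X-100, 1% formaldehyde, 1 ug/ml Hoechst), and nuclei were counted on 4× images. Relative viability is the nuclei count in treated wells divided by the count in vehicle wells, and each value is the median of duplicate plates.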

AZD5582 + Lapatinib = compound: C[C@@H](C(=O)N[C@@H](C1CCCCC1)C(=O)N2CCC[C@H]2C(=O)N[C@@H]3[C@@H](CC4=CC=CC=C34)OCC#CC#CCO[C@@H]5CC6=CC=CC=C6[C@@H]5NC(=O)[C@@H]7CCCN7C(=O)[C@H](C8CCCCC8)NC(=O)[C@H](C)NC)NC [AZD5582] + CS(=O)(=O)CCNCc1ccc(-c2ccc3ncnc(Nc4ccc(OCc5cccc(F)c5)c(Cl)c4)c3c2)o1 [Lapatinib] (partner 2 µM)
In short: as §1

AZD5582 + Linsitinib = compound: C[C@@H](C(=O)N[C@@H](C1CCCCC1)C(=O)N2CCC[C@H]2C(=O)N[C@@H]3[C@@H](CC4=CC=CC=C34)OCC#CC#CCO[C@@H]5CC6=CC=CC=C6[C@@H]5NC(=O)[C@@H]7CCCN7C(=O)[C@H](C8CCCCC8)NC(=O)[C@H](C)NC)NC [AZD5582] + C[C@]1(O)C[C@@H](c2nc(-c3ccc4ccc(-c5ccccc5)nc4c3)c3c(N)nccn32)C1 [Linsitinib] (partner 1 µM)
In short: as §1

AZD5582 + Tozasertib = compound: C[C@@H](C(=O)N[C@@H](C1CCCCC1)C(=O)N2CCC[C@H]2C(=O)N[C@@H]3[C@@H](CC4=CC=CC=C34)OCC#CC#CCO[C@@H]5CC6=CC=CC=C6[C@@H]5NC(=O)[C@@H]7CCCN7C(=O)[C@H](C8CCCCC8)NC(=O)[C@H](C)NC)NC [AZD5582] + Cc1cc(Nc2cc(N3CCN(C)CC3)nc(Sc3ccc(NC(=O)C4CC4)cc3)n2)n[nH]1 [Tozasertib] (partner 0.1 µM)
In short: as §1

AZD5582 + Olaparib = compound: C[C@@H](C(=O)N[C@@H](C1CCCCC1)C(=O)N2CCC[C@H]2C(=O)N[C@@H]3[C@@H](CC4=CC=CC=C34)OCC#CC#CCO[C@@H]5CC6=CC=CC=C6[C@@H]5NC(=O)[C@@H]7CCCN7C(=O)[C@H](C8CCCCC8)NC(=O)[C@H](C)NC)NC [AZD5582] + O=C(c1cc(Cc2n[nH]c(=O)c3ccccc23)ccc1F)N1CCN(C(=O)C2CC2)CC1 [Olaparib] (partner 8 µM)
In short: as §1

Row | Cell Line | relative viability (AZD5582 + Bortezomib; first compound 0.001581 µM) | relative viability (AZD5582 + Bortezomib; first compound 0.005 µM) | relative viability (AZD5582 + Bortezomib; first compound 0.01581 µM) | relative viability (AZD5582 + Bortezomib; first compound 0.05 µM) | relative viability (AZD5582 + Lapatinib; first compound 0.001581 µM) | relative viability (AZD5582 + Lapatinib; first compound 0.005 µM) | relative viability (AZD5582 + Lapatinib; first compound 0.01581 µM) | relative viability (AZD5582 + Lapatinib; first compound 0.05 µM) | relative viability (AZD5582 + Linsitinib; first compound 0.001581 µM) | relative viability (AZD5582 + Linsitinib; first compound 0.005 µM) | relative viability (AZD5582 + Linsitinib; first compound 0.01581 µM) | relative viability (AZD5582 + Linsitinib; first compound 0.05 µM) | relative viability (AZD5582 + Tozasertib; first compound 0.001581 µM) | relative viability (AZD5582 + Tozasertib; first compound 0.005 µM) | relative viability (AZD5582 + Tozasertib; first compound 0.01581 µM) | relative viability (AZD5582 + Tozasertib; first compound 0.05 µM) | relative viability (AZD5582 + Olaparib; first compound 0.001581 µM) | relative viability (AZD5582 + Olaparib; first compound 0.005 µM) | relative viability (AZD5582 + Olaparib; first compound 0.01581 µM) | relative viability (AZD5582 + Olaparib; first compound 0.05 µM)
1 | EMC-BAC-2 | 1.01 | 1.04 | 1.02 | 0.354 | 0.782 | 0.903 | 0.865 | 0.564 | 0.768 | 0.871 | 0.831 | 0.564 | 0.271 | 0.269 | 0.288 | 0.187 | 0.43 | 0.446 | 0.437 | 0.446
2 | NCI-H1651 | 0.831 | 0.907 | 0.87 | 0.987 | 0.862 | 1.03 | 0.724 | 0.988 | 0.894 | 1.06 | 1.01 | 1.21 | 0.727 | 0.845 |  | 0.918 | 0.175 | 0.183 | 0.18 | 0.163
3 | HCC-827 | 0.974 | 1.05 | 0.901 | 1.07 | 0.222 | 0.183 | 0.179 | 0.163 | 0.897 | 0.968 | 0.885 | 0.948 | 0.398 | 0.489 | 0.436 | 0.396 | 0.662 | 0.807 | 0.626 | 0.68
4 | SW 1573 | 1.3 | 0.996 | 1.04 | 1.43 | 0.954 | 1.28 | 1.24 | 1.09 | 0.918 | 0.834 | 0.801 | 0.916 | 0.188 | 0.192 | 0.164 | 0.255 | 0.376 | 0.523 | 0.628 | 0.684
5 | NCI-H460 | 1.02 | 1.05 | 1.06 | 1.34 | 0.836 | 0.959 | 0.932 | 1.43 | 0.722 | 0.895 | 0.88 | 1.04 | 0.0814 | 0.495 | 0.509 | 0.521 | 0.36 | 0.411 | 0.345 | 0.413
6 | NCI-H1648 |  |  |  |  |  |  |  |  |  |  |  |  |  | 0.549 | 0.37 | 0.615 | 0.65 | 0.735 |  | 0.672
7 | NCI-H647 | 0.878 | 0.907 | 0.997 | 0.871 | 0.839 | 0.943 | 0.98 | 0.767 | 1.1 | 1.01 | 1.25 | 0.934 | 0.269 | 0.347 | 0.255 | 0.357 | 0.492 | 0.587 | 0.6 | 0.589
8 | NCI-H322M | 1.18 | 1.37 | 1.18 | 1.41 | 0.678 | 0.796 | 0.619 | 0.774 | 0.871 | 1.13 | 0.887 | 1.02 | 0.499 | 0.579 |  | 0.523 | 0.745 | 0.865 | 0.692 | 0.882
9 | NCI-H1666 | 0.717 | 0.805 | 0.714 | 0.73 | 0.488 | 0.712 | 0.673 | 0.744 | 0.779 | 0.713 | 0.848 | 0.861 | 0.539 | 0.682 | 0.638 | 0.678 | 0.766 | 0.745 | 0.674 | 0.77
10 | NCI-H2342 |  |  |  |  |  |  |  |  |  |  |  |  | 0.493 | 0.585 | 0.43 | 0.542 | 0.325 | 0.361 | 0.463 | 0.438
11 | ChaGo-K-1 | 0.988 | 0.985 | 0.93 | 0.982 |  |  |  |  |  |  |  |  | 0.242 | 0.231 | 0.208 | 0.215 | 0.435 | 0.41 | 0.421 | 0.442
12 | CAL-12T | 0.777 | 0.746 | 0.448 | 0.668 | 0.293 | 0.434 | 0.382 | 0.326 | 0.665 | 0.656 | 0.775 | 0.544 | 0.219 | 0.226 | 0.282 | 0.228 | 0.558 | 0.534 | 0.636 | 0.373
13 | LOU-NH91 | 0.45 | 0.509 | 0.489 | 0.443 | 0.815 | 0.817 | 0.794 | 0.797 | 0.964 | 0.924 | 0.997 | 1.04 | 0.594 | 0.679 | 0.679 | 0.613 | 0.875 | 0.945 | 0.928 | 0.903
14 | NCI-H1975 | 0.327 | 0.458 | 0.373 | 0.414 | 1.01 | 1.21 | 0.836 | 1.2 | 1.08 | 1.04 | 1.01 | 1.25 | 0.643 | 0.858 | 0.742 | 0.809 | 0.862 | 1.06 | 0.764 | 0.951
15 | IA-LM | 0.704 | 0.679 | 0.829 | 0.74 | 0.623 | 0.725 | 0.809 | 0.584 | 0.5 | 0.479 | 0.64 | 0.599 |  |  |  |  | 0.708 | 0.586 | 0.649 | 0.582

— the supplement of paper PMC10307832
